Test results: article PMC9405123, “Design, Synthesis and Mechanistic Studies of Novel Isatin-Pyrazole Hydrazone Conjugates as Selective and Potent Bacterial MetAP Inhibitors” (Antibiotics, 2022)
Values after ≈ are worked out from the molar mass of the structure shown. Like-named read-outs stand apart in the source and are kept apart here.

Columns and labels:
[1] = target: T1, MtMetAP1c (Mycobacterium tuberculosis, UniProt P9WK19); assay: MetAP enzyme inhibition, Morrison Ki (Met-AMC fluorescence); assay type: biochemical, M. tuberculosis; settings: Morrison Ki method
T1 construct: made in house
Method: MetAP appears to serve a vital role in the co- or post-translational modification of proteins, making it essential for bacterial cell metabolism and survival. In this study, all enzymes, which were used for this study, including MtMetAP1c (M. tuberculosis), EfMetAP1a (E. faecalis), SpMetAP1a (S. pneumoniae) and HsMetAP1b (H. sapiens) enzymes, were expressed and purified in our lab as previously reported. All compounds prepared 10 mM stocks in DMSO and were used for enzyme inhibition studies. The concentration of each enzyme is adjusted such that they have similar reaction rates (HsMetAp1b, 1 µM; SpMetAP1a, 5 µM; EfMetAP1a, 1 µM; MtMetAP1c, 1 µM;) as reported earlier. All assays were performed in […] reaction containing 50 mM HEPES (pH 7.5 for SpMetAP1a and HsMetAP1b; 8.0 for EfMetAP1a, MtMetAP1c, […]), 150 mM NaCl, and CoCl2 (three molar equivalents of corresponding enzymes). The reaction was started by adding 50 μM L-Methionine 7-amido-4-methyl coumarin (Met-AMC) and continuously monitoring the fluorescence of released 7-amino-4-methyl coumarin (AMC) (380 nm excitation and 460 nm emission) in a microplate multimode reader (TECAN, Austria). The maximum percentage of inhibition against enzymes is calculated at […] compound concentration. […] The Ki values were determined according to the Morrison method using three different concentrations of substrates and ten different concentrations of the inhibitor. All experiments were performed in triplicate. GraphPad Prism version 8.0.0 (San Diego, CA, USA) was used to determine all the kinetic parameters.

[2] = target: EfMetAP1a (Enterococcus faecalis, UniProt Q832M5); assay: as above; assay type: biochemical; settings: Morrison Ki method
[3] = target: SpMetAP1a (Streptococcus pneumoniae, UniProt Q8DPV1); assay: as above; assay type: biochemical; settings: Morrison Ki method
[4] = target: T2, HsMetAP1b (Homo sapiens, UniProt P53582); assay: as above; assay type: biochemical, H. sapiens; settings: Morrison Ki method
T2 construct: made in house

[5] = test system: E. faecalis; assay: Growth inhibition screening (broth dilution); assay type: cell-based, Enterococcus faecalis
Method: (§1) In vitro screening of the compounds (PS1–14) was performed to assess the antibacterial activity against three Gram-positive (Staphylococcus aureus, Enterococcus faecalis and Bacillus subtilis,) and three Gram-negative (Pseudomonas aeruginosa, Klebsiella pneumonia and Escherichia coli) bacterial strains using the standard NCCLS broth dilution assay. The study’s standard drugs were ciprofloxacin (CIP) and ampicillin (AMP). Compounds were dissolved in a polar solvent (DMSO) and distributed into a 96-well plate in 200 µL of nutrient broth medium, with a final concentration of the compounds […] in each well. The bacterial cells (about 2.5 × 10^5 cells/mL) were inoculated into each well and incubated at 37 °C overnight. After incubation, the growth was measured by turbidity of the culture at 590 nm by spectrophotometer.

[6] = test system: B. subtilis; assay: Growth inhibition screening (broth dilution); assay type: cell-based, Bacillus subtilis
Method: as §1

[7] = test system: S. aureus; assay: Growth inhibition screening (broth dilution); assay type: cell-based, Staphylococcus aureus; settings: Staphylococcus aureus
Method: as §1

[8] = test system: P. aeruginosa; assay: Growth inhibition screening (broth dilution); assay type: cell-based, Pseudomonas aeruginosa
Method: as §1

[9] = test system: E. coli; assay: Growth inhibition screening (broth dilution); assay type: cell-based, Escherichia coli
Method: as §1

[10] = test system: K. pneumoniae; assay: Growth inhibition screening (broth dilution); assay type: cell-based, Klebsiella pneumonia
Method: as §1

[11] = test system: E. faecalis; assay: Minimum inhibitory concentration (broth dilution); assay type: cell-based; settings: Enterococcus faecalis, alone
[12] = test system: B. subtilis; assay: Minimum inhibitory concentration (broth dilution); assay type: cell-based; settings: Bacillus subtilis, alone
[13] = test system: S. aureus; assay: Minimum inhibitory concentration (broth dilution); assay type: cell-based; settings: Staphylococcus aureus, alone
[14] = test system: P. aeruginosa; assay: Minimum inhibitory concentration (broth dilution); assay type: cell-based; settings: Pseudomonas aeruginosa, alone
[15] = test system: E. coli; assay: Minimum inhibitory concentration (broth dilution); assay type: cell-based, Escherichia coli; settings: Escherichia coli, alone, read-out: MIC
[16] = test system: K. pneumoniae; assay: Minimum inhibitory concentration (broth dilution); assay type: cell-based, Klebsiella pneumonia; settings: Klebsiella pneumoniae, alone, read-out: MIC
[17] = test system: E. faecalis; assay: Minimum bactericidal concentration; assay type: cell-based, Enterococcus faecalis
[18] = test system: B. subtilis; assay: Minimum bactericidal concentration; assay type: cell-based, Bacillus subtilis
[19] = test system: S. aureus; assay: Minimum bactericidal concentration; assay type: cell-based, Staphylococcus aureus
[20] = test system: P. aeruginosa; assay: Minimum bactericidal concentration; assay type: cell-based, Pseudomonas aeruginosa
[21] = test system: E. coli; assay: Minimum bactericidal concentration; assay type: cell-based, Escherichia coli
[22] = test system: K. pneumoniae; assay: Minimum bactericidal concentration; assay type: cell-based, Klebsiella pneumonia
[23] = test system: E. faecalis; assay: Combination study with AMP or CIP
[24] = test system: B. subtilis; assay: Combination study with AMP or CIP
[25] = test system: S. aureus; assay: Combination study with AMP or CIP
[26] = test system: P. aeruginosa; assay: Combination study with AMP or CIP
[27] = test system: E. coli; assay: Combination study with AMP or CIP
[28] = test system: K. pneumoniae; assay: Combination study with AMP or CIP
[29] = test system: Staphylococcus aureus; settings: cited from earlier work

EfMetAP1a, sequence (Q832M5 entry or part of it): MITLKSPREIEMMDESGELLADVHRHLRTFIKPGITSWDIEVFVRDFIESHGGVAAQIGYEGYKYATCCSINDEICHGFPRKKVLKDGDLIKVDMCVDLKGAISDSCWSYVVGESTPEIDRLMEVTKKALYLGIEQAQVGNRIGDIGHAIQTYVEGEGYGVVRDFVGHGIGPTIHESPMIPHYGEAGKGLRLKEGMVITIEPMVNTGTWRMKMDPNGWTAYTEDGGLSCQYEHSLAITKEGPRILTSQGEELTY
SpMetAP1a, sequence (Q8DPV1 entry or part of it): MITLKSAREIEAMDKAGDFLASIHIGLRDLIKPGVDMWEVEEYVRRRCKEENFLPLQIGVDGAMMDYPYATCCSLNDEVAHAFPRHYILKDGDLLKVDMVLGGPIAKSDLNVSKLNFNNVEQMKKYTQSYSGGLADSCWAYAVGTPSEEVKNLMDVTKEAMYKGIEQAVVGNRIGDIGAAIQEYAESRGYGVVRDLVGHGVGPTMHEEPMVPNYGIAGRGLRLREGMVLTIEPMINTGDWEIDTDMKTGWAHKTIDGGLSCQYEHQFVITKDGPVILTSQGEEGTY
T1 sequence (P9WK19 whole entry): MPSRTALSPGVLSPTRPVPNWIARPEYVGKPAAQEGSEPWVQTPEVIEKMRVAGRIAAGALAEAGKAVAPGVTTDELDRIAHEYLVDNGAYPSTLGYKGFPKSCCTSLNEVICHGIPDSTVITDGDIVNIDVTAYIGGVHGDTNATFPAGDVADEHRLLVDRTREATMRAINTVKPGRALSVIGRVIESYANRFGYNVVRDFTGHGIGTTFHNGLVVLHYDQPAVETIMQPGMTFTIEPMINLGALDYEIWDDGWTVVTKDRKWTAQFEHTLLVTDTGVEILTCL

O=C1Nc2cc(Cl)c(F)cc2/C1=N\NC(=O)c1cc(-c2cccc(Br)c2)n[nH]1 [PS6, (E)-3-(3-Bromophenyl)-N′-(6-Chloro-5-Fluoro-2-Oxoindolin-3-Ylidene)-1H-Pyrazole-5-Carbohydrazide] showed a Ki [1] of 740 ± 60 nM, a Ki [2] of 1650 ± 310 nM and a Ki [3] of 2550 ± 110 nM. For the same compound, the Ki [4] was 172000 ± 4800 nM, the inhibition at 250 µg/mL ([5]; Enterococcus faecalis) was greater than 70% and the “% Growth Inhibition at 250 µg/mL” value ([5]; listed as C00006) was 73%. The “% Growth Inhibition at 250 µg/mL” value [6] was “more than 70%”, the “% Growth Inhibition at 250 µg/mL” value ([6]; listed as C00006) was 100% and the inhibition at 250 µg/mL [7] was 61%. The “% Growth Inhibition at 250 µg/mL” value [8] was “more than 70%”, the “% Growth Inhibition at 250 µg/mL” value ([8]; listed as C00006) was 100% and the “% Growth Inhibition at 250 µg/mL” value [9] was “more than 70%”. For the same compound, the “% Growth Inhibition at 250 µg/mL” value ([9]; listed as C00006) was 97%, the inhibition at 250 µg/mL ([10]; Klebsiella pneumoniae) was greater than 70% and the “% Growth Inhibition at 250 µg/mL” value ([10]; listed as C00006) was 80%. The MIC [11] was 16 µg/mL (≈ 34.6 µM), the MIC [12] was 8 µg/mL (≈ 17.3 µM) and the MIC [13] was 16 µg/mL (≈ 34.6 µM). The MIC [14] was 32 µg/mL (≈ 69.2 µM), the MIC [15] was 32 µg/mL (≈ 69.2 µM) and the MIC [16] was 64 µg/mL (≈ 138 µM). The “MBC/MIC Ratio (R*)” value [17] was 2, the MBC ([17]; Enterococcus faecalis) was 32 µg/mL (≈ 69.2 µM) and the “MBC/MIC Ratio (R*)” value [18] was 2. For the same compound, the MBC ([18]; Bacillus subtilis) was 16 µg/mL (≈ 34.6 µM), the “MBC/MIC Ratio (R*)” value [19] was 32 and the MBC ([19]; Staphylococcus aureus) was 512 µg/mL (≈ 1110 µM). The “MBC/MIC Ratio (R*)” value [20] was 8, the MBC ([20]; Pseudomonas aeruginosa) was 256 µg/mL (≈ 553 µM) and the “MBC/MIC Ratio (R*)” value [21] was 8. For the same compound, the MBC ([21]; Escherichia coli) was 256 µg/mL (≈ 553 µM), the “MBC/MIC Ratio (R*)” value [22] was 2 and the MBC ([22]; Klebsiella pneumoniae) was 128 µg/mL (≈ 277 µM). For the same compound, the melting point was 191 to 194 °C, the “MIC in Combination” value ([23]; combination PS6 + AMP) was 1 µg/mL and the “MIC in Combination” value ([23]; combination PS6 + CIP) was 4 µg/mL. For the same compound, the FICI ([23]; combination with AMP) was 0.09, the FICI ([23]; combination with CIP) was 0.31 and the “MIC in Combination” value ([24]; combination PS6 + AMP) was 2 µg/mL. For the same compound, the “MIC in Combination” value ([24]; combination PS6 + CIP) was 8 µg/mL, the FICI ([24]; combination with AMP) was 0.75 and the FICI ([24]; combination with CIP) was 1.06. The “Mode of Interaction” value ([24]; combination with CIP) was “Indifferent (in between 0.5 and 4)”, the “MIC in Combination” value ([25]; combination PS6 + AMP) was 1 µg/mL and the “MIC in Combination” value ([25]; combination PS6 + CIP) was 8 µg/mL. For the same compound, the FICI ([25]; combination with AMP) was 0.31, the FICI ([25]; combination with CIP) was 1 and the “Mode of Interaction” value ([25]; combination with CIP) was “Indifferent (in between 0.5 and 4)”. For the same compound, the “MIC in Combination” value ([26]; combination PS6 + AMP) was 4 µg/mL, the “MIC in Combination” value ([26]; combination PS6 + CIP) was 4 µg/mL and the FICI ([26]; combination with AMP) was 0.25. The FICI ([26]; combination with CIP) was 0.25, the “Mode of Interaction” value ([26]; combination with CIP) was “Synergistic (FICI value is less than or equal to 0.5)” and the “MIC in Combination” value ([27]; combination PS6 + AMP) was 4 µg/mL. The “MIC in Combination” value ([27]; combination PS6 + CIP) was 8 µg/mL, the FICI ([27]; combination with AMP) was 0.25 and the FICI ([27]; combination with CIP) was 0.31. The “MIC in Combination” value ([28]; combination PS6 + AMP) was 4 µg/mL, the “MIC in Combination” value ([28]; combination PS6 + CIP) was 8 µg/mL and the FICI ([28]; combination with AMP) was 0.18. The FICI ([28]; combination with CIP) was 0.62 and the “Mode of Interaction” value ([28]; combination with CIP) was “Indifferent (in between 0.5 and 4)”.
In the case of Cn1nc(C(=O)NC(=O)Nc2ccccc2)c(C(=O)c2ccccc2)c1-c1ccccc1 [D], the MIC [29] is listed as 310 µg/mL (≈ 730 µM).
